Assay results from patent publication US7651846B2, “Treatment and diagnosis of conditions associated with elevated arginase activity” (Children's Hospital & Research Center at Oakland, priority 2003, dated 2010).

What was measured:
arginase = settings: cited from earlier work
asthma patients = settings: nebulised, steroid naive asthma; cited from earlier work
[1] = tested on: normal and asthmatic subjects; settings: inhaled, dose-dependent; cumulative effect higher in asthmatic subjects; cited from earlier work
cystic fibrosis patients = settings: inhaled; cited from earlier work
[2] = tested on: Patients with sickle cell disease and documented pulmonary hypertension; assay: Oral L-arginine in sickle cell disease patients with pulmonary hypertension, Doppler echocardiography; type: in vivo, human
Text: Sickle cell patients. Seventeen sickle cell disease patients with documented pulmonary hypertension at steady-state were enrolled in the study. All known patients with pulmonary hypertension receiving care at the Northern California Comprehensive Sickle Cell Center were approached for participation in this analysis. Twelve patients were homozygous for hemoglobin S, three patients had hemoglobin type SC, and two patient had hemoglobin S β-thalassemia. The mean age of patients was 32.7±15 years with a range of 13 to 63 years. There were seven women enrolled. Ten ethnically matched normal non-sickle cell disease volunteers were enrolled as a control group in order to compare amino acid levels and arginase activity. The mean age was 20.6±10 years, ranging from 10 to 34 years. There were four females and six males enrolled. Pulmonary hypertension was defined as estimated pulmonary artery pressures >30 mm Hg by echocardiogram (or tricuspid regurgitant jet velocity of greater than 2.5 m/sec), >two months duration, not associated with acute chest syndrome. A chart review was performed on all patients to obtain tricuspid regurgitant jet velocity data from previous echocardiograms.
(§1) Patients with sickle cell disease and documented pulmonary hypertension by echocardiography were treated with oral L-arginine-HCl, at a dose of 0.1 g/kg TID for five days. […] Blood samples for determination of amino acid levels were drawn in the morning of Day 0 (pre-treatment), […], and Day six of the study. Arginase activity levels were determined on Day 0. No patients were being concurrently treated with vasodilators or anticoagulant agents, and no patients received a red blood cell transfusion during the five-day study period. Cardiologists involved in the interpretation of echocardiograms were unaware of the therapy given.
Echocardiography. […] They were the only patient found to not show an improvement in pulmonary hypertension by echocardiogram.
Results were unavailable from outside hospitals in three patients. […]

[3] = Plasma amino acid levels after oral L-arginine supplementation in SCD patients with pulmonary hypertension; type: in vivo, human; settings: after five days of oral L-arginine supplementation, n=10, p<0.05
Protocol: Amino Acid Levels. (A complete amino acid panel, including arginine, citrulline, ornithine, and L-arginine analogue asymmetric di-methyl-L-arginine). Quantitative plasma amino acid levels are measured in μmol/L, using a Beckman 6300 amino acid analyzer. The amino acids are separated on an lithium ion exchange column and then reacted with ninhydrin to generate a color response. The data is collected and analyzed using Beckman 32 Karat software, at the Molecular Structure Facility, University of California, Davis, Calif.
as §1

patients with asthma = settings: oral; cited from earlier work
[4] = tested on: cationic amino acid molecules (Cationic Amino Acid Transporter, CAT); settings: read-out: Km for arginine transport; cited from earlier work
[5] = tested on: patients with a known diagnosis of asthma; settings: single oral dose 0.1 gm/kg, one patient
Protocol: The effects of arginine supplementation on pulmonary function tests is evaluated by administering supplemental arginine (oral or intravenous) alone or in conjunction with magnesium and/or an arginase inhibitor to patients with a known diagnosis of asthma, defined as ≧3 wheezing episodes and a past history of asthma medication usage (e.g., bronchodilators, steroids, inhaled steroids, or leukotriene inhibitors etc). Pulmonary function tests are performed before and after a single dose of arginine (0.1 gram/kg to a max of 10 grams).
A single dose of oral arginine (0.1 gm/kg) was administered. Pulmonary function tests were determined prior to treatment and 2 hours after arginine supplementation.

[6] = tested on: hyperresponsiveness of reactive airways; settings: animal studies, inhalation of low doses; cited from earlier work

Row | Structure (SMILES) | inhibition of arginase activity (arginase) | exhaled NO following administration (asthma patients) | exhaled NO [1] | pulmonary functions (cystic fibrosis patients) | pulmonary artery systolic pressure after therapy ([2]; oral 0.1 g/kg TID for five days, baseline 63.9±13 mmHg, p=0.002) [mmHg] | mean reduction of pulmonary artery systolic pressure ([2]; oral L-arginine-HCl 0.1 g/kg TID, after five days of therapy, p=0.002) [%] | follow-up echocardiography (pulmonary artery systolic pressure) ([2]; ≧one month after arginine therapy, nine compliant patients: four reverted to baseline, four persistent improvement, one worsening) | plasma L-arginine concentration [3] | plasma ornithine concentration [3] | airway hyperresponsiveness to histamine as reflected by PC(20) (patients with asthma) | Km [4] [µM] | FIF 50% improvement ([5]; 2 hours after) [%] | effect on lung volumes ([5]; 2 hours after) | effect on spirometry ([5]; 2 hours after) | airway conductance, Gaw increase ([5]; within 2 hours) [%] | airway resistance, Raw decrease ([5]; within 2 hours) [%] | oxygen saturation by venous blood gas after treatment ([5]; increase from 85 %) [%] | hyperresponsiveness of reactive airways [6]
1 | NC(=NCCC[C@H](N)C(=O)O)NO [NG-hydroxyl-L-arginine] | potent inhibitor |  |  |  |  |  |  |  |  |  |  |  |  |  |  |  |  | 
2 | N=C(N)NCCC[C@H](N)C(=O)O [L-arginine] |  | increased | increased | improves | 54.2±12 | 15.2 | mixed results | increased significantly | increased significantly | does not influence | ~100 | 23 | minimal effect | did not significantly effect spirometry | 28 | 22 | 92 | completely blocked
3 | N=C(N)NCCC[C@@H](N)C(=O)O [D-arginine] |  | increased |  |  |  |  |  |  |  |  |  |  |  |  |  |  |  | 
